Measured values published in ChEMBL document CHEMBL5661967, “Antitumor activity of HKI-272, an orally active, irreversible inhibitor of the HER-2 tyrosine kinase” (Cancer Res, 2004).
Active and inactive are the calls of the source. The rule behind the calls is not given here.

Tests used:
[1] = molecular target: Cyclin-dependent kinase 4/cyclin D1 (Homo sapiens, UniProt P11802); test: Inhibition of recombinant CDK4/cyclin D1 (unknown origin) using protein as substrate; type: protein-complex assay
Chain of Cyclin-dependent kinase 4/cyclin D1 (P11802 whole entry): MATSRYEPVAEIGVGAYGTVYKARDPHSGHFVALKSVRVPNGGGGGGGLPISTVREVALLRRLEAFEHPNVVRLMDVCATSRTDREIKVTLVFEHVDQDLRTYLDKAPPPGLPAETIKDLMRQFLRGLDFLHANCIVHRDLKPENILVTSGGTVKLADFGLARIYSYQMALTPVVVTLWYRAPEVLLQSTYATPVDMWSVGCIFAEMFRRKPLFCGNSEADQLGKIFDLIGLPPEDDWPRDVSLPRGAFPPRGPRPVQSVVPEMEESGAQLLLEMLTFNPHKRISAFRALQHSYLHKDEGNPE
Chain of Cyclin-dependent kinase 4/cyclin D1 (P24385 whole entry, further chain): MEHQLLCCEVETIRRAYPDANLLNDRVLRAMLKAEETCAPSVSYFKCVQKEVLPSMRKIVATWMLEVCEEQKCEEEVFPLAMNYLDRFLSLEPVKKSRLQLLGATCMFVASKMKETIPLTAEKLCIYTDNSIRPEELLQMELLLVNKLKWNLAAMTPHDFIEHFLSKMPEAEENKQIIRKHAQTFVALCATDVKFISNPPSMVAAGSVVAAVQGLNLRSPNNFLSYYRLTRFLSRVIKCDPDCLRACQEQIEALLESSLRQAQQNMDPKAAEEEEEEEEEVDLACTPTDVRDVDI

[2] = molecular target: Cyclin-dependent kinase 1/cyclin B1 (Homo sapiens, UniProt P06493); test: Inhibition of recombinant CDK1/cyclin B1 (unknown origin) using protein as substrate; type: protein-complex assay
Chain of Cyclin-dependent kinase 1/cyclin B1 (P06493 whole entry): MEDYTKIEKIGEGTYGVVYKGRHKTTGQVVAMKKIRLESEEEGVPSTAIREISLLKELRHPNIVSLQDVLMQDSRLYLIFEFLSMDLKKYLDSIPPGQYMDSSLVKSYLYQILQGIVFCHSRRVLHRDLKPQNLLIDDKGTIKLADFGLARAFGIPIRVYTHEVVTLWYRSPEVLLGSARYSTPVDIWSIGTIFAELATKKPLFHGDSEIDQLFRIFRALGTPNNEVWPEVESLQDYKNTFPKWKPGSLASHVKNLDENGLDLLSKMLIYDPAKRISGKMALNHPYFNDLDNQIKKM
Chain of Cyclin-dependent kinase 1/cyclin B1 (P14635 whole entry, further chain): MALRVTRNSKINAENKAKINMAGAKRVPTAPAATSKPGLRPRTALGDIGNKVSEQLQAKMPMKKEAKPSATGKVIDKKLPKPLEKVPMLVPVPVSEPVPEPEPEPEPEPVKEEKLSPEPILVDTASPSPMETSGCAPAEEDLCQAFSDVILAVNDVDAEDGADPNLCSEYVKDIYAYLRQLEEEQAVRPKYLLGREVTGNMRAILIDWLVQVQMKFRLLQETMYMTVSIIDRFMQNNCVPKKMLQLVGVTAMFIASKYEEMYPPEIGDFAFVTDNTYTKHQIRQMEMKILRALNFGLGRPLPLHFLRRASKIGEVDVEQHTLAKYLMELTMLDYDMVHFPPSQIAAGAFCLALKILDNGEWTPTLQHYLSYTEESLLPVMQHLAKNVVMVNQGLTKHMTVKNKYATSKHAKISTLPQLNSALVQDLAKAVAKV

[3] = molecular target: Vascular endothelial growth factor receptor 2 (Homo sapiens, UniProt P35968); test: Inhibition of recombinant KDR (unknown origin) using poly[Glu:Tyr] (4:1) as substrate
[4] = molecular target: Hepatocyte growth factor receptor (Homo sapiens, UniProt P08581); test: Inhibition of recombinant c-Met autophosphorylation (unknown origin)
Chain of Hepatocyte growth factor receptor (P08581 whole entry): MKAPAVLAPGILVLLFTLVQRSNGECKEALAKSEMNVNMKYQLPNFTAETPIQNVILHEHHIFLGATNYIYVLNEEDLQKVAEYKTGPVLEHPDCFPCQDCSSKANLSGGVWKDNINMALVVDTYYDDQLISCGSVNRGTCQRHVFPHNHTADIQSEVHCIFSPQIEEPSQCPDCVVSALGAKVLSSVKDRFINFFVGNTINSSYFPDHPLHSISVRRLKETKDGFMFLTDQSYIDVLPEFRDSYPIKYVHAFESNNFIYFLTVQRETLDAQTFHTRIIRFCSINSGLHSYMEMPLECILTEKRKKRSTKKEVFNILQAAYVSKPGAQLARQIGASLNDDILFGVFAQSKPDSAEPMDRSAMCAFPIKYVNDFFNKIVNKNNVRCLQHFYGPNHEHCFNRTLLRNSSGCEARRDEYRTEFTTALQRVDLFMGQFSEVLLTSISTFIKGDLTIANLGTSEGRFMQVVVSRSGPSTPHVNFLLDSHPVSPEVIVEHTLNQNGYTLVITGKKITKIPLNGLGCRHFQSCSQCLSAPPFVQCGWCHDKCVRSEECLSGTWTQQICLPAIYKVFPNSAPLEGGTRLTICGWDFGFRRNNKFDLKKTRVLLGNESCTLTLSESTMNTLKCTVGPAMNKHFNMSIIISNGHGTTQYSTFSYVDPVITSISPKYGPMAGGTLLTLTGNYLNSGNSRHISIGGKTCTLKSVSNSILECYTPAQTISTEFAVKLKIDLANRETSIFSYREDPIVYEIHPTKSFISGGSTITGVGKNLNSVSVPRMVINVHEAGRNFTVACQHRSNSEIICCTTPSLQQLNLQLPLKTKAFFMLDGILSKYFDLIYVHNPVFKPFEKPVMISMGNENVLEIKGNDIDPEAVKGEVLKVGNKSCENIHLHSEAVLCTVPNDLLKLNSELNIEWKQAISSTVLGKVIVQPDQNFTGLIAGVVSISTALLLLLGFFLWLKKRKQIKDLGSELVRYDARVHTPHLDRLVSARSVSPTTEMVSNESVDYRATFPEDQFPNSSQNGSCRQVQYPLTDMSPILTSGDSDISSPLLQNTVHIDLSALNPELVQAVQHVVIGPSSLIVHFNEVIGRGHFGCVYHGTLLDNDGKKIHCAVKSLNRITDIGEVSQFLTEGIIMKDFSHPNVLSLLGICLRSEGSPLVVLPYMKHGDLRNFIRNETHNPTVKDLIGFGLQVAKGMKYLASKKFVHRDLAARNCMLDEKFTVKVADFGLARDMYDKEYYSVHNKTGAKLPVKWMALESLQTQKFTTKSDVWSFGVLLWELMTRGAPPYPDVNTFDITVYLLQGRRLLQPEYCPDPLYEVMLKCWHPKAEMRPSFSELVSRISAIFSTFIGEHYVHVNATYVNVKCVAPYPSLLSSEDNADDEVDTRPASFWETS

[5] = molecular target: Mitogen-activated protein kinase kinase kinase 8 (Homo sapiens, UniProt P41279); test: Inhibition of recombinant Tpl-2 (unknown origin) using peptide as substrate
Chain of Mitogen-activated protein kinase kinase kinase 8 (P41279 whole entry, the tested form may be a part): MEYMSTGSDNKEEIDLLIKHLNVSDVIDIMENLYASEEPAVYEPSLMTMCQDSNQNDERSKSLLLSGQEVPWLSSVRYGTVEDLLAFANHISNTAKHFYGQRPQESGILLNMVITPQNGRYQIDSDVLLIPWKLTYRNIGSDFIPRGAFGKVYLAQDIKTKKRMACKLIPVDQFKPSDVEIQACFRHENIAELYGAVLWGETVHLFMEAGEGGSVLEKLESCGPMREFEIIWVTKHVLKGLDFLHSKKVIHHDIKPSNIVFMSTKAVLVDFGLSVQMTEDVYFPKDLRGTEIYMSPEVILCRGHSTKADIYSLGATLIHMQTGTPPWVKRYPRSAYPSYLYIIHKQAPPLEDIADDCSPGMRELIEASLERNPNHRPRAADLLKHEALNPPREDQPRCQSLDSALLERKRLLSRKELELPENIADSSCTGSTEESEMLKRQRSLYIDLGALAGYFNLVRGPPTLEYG

Homo sapiens = organism: Homo sapiens; test: Selectivity ratio of IC50 for recombinant Src (unknown origin) to IC50 for recombinant N-terminal His6-tagged HER2 cytoplasmic domain (676 to 1255 residues)(unknown origin) expressed in baculovirus infected Sf9 insect cells
[6] = Cytotoxicity against mouse 3T3 cells assessed as inhibition of cell proliferation measured after 2 days by sulforhodamine B assay; type: toxicity, cell-based; conditions: NIH3T3 (3T3) cells
NIH3T3 [7] = test: Antiproliferative activity against mouse 3T3 cells transfected with HER-2 oncogene measured after 2 days by sulforhodamine B assay; type: functional, cell-based; conditions: NIH3T3, 48 h
A-431 = test: Antiproliferative activity against human A-431 cells measured after 2 days by sulforhodamine B assay; type: functional, cell-based; conditions: A-431, 48 h
[8] = molecular target: Epidermal growth factor receptor (Homo sapiens, UniProt P00533); test: Inhibition of EGF-induced EGFR phosphorylation in human A-431 cells at 1 uM incubated for 3 hrs followed by compound washout and further incubated for 5 hrs by Western blot analysis relative to control; type: cell-based
[9] = molecular target: Receptor tyrosine-protein kinase erbB-2 (Homo sapiens, UniProt P04626); test: Binding affinity to HER2 in human […] cells at 1 uM measured after 15 mins by immunoprecipitation assay; type: cell-based; conditions: BT-474
Chain of Receptor tyrosine-protein kinase erbB-2 (P04626 whole entry): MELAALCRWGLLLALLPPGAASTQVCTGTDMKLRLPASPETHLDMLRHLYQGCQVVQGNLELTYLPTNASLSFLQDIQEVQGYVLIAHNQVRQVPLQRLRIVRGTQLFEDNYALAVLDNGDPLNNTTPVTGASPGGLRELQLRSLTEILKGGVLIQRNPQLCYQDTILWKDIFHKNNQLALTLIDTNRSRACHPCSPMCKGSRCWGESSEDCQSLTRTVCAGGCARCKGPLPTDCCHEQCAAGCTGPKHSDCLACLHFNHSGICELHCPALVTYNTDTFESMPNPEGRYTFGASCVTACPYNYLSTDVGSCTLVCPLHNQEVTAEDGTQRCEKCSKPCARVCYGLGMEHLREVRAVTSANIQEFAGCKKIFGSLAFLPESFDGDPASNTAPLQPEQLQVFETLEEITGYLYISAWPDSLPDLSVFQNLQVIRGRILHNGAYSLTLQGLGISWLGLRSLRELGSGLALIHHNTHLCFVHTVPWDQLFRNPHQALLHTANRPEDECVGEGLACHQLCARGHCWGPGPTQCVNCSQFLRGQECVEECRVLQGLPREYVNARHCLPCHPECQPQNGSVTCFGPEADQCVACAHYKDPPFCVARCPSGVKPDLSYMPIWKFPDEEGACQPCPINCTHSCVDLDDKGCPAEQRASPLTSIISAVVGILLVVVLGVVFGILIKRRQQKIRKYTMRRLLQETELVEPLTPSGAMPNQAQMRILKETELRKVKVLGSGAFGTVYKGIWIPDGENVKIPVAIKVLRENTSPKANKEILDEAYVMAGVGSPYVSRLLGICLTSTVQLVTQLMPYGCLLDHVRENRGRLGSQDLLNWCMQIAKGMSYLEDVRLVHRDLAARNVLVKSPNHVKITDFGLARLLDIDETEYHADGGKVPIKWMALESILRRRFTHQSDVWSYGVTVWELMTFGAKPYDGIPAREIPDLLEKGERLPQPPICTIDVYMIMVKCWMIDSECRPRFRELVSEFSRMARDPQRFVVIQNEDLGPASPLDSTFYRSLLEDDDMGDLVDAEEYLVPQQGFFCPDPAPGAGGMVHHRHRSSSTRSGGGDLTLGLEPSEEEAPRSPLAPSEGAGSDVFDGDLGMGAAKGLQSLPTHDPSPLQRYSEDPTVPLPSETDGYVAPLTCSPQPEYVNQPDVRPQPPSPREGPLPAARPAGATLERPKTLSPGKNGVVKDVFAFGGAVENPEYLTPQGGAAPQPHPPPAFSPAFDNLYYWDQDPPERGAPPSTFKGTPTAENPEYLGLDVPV

BT-474 [10] = test: Cell cycle arrest in human BT-474 cells assessed as up regulation of p27 expression at 1 to 10 nM incubated for 12 to 16 hrs by Western blot analysis; type: functional, cell-based; conditions: dose 1-10 nM, time 12-16 hrs
BT-474 [11] = test: Cell cycle arrest in human BT-474 cells assessed as accumulation of cells at Sub-G1 phase at 0.4 nM measured after 12 to 16 hrs by propidium iodide staining based flow cytometry (reference value: 8%); type: functional; conditions: time 12-16 hrs
BT-474 [12] = test: Cell cycle arrest in human BT-474 cells assessed as accumulation of cells at Sub-G1 phase at 1 nM measured after 12 to 16 hrs by propidium iodide staining based flow cytometry (reference value: 8%); type: functional; conditions: time 12-16 hrs
BT-474 [13] = test: Cell cycle arrest in human BT-474 cells assessed as accumulation of cells at G0-G1 phase at 1 nM measured after 12 to 16 hrs by propidium iodide staining based flow cytometry (reference value: 61%); type: functional; conditions: time 12-16 hrs
BT-474 [14] = test: Cell cycle arrest in human BT-474 cells assessed as accumulation of cells at S phase at 0.2 nM measured after 12 to 16 hrs by propidium iodide staining based flow cytometry (reference value: 21%); type: functional; conditions: time 12-16 hrs
BT-474 [15] = test: Cell cycle arrest in human BT-474 cells assessed as accumulation of cells at S phase at 0.2 nM measured after 12 to 16 hrs by BrdUrd uptake assay (reference value: 26%); type: functional; conditions: time 12-16 hrs
BT-474 [16] = test: Cell cycle arrest in human BT-474 cells assessed as accumulation of cells at S phase at 0.4 nM measured after 12 to 16 hrs by BrdUrd uptake assay (reference value: 26%); type: functional; conditions: time 12-16 hrs
BT-474 [17] = test: Cell cycle arrest in human BT-474 cells assessed as accumulation of cells at G2/M phase at 0.4 nM measured after 12 to 16 hrs by propidium iodide staining based flow cytometry (reference value: 11%); type: functional; conditions: time 12-16 hrs
BT-474 [18] = test: Cell cycle arrest in human BT-474 cells assessed as accumulation of cells at G2/M phase at 2 nM measured after 12 to 16 hrs by propidium iodide staining based flow cytometry (reference value: 11%); type: functional; conditions: time 12-16 hrs
BT-474 [19] = test: Cell cycle arrest in human BT-474 cells assessed as reduction in accumulation of cells at S phase measured after 12 to 16 hrs by BrdUrd uptake assay; type: functional, cell-based
BT-474 [20] = test: Cell cycle arrest in human BT-474 cells assessed as increase in accumulation of cells at sub-G1 phase at >2 nM measured after 12 to 16 hrs by propidium iodide staining based flow cytometry; type: functional; conditions: time 12-16 hrs
NIH3T3 [21] = test: Antitumor activity against mouse 3T3 cells transfected with HER-2 oncogene implanted in athymic nude mouse assessed as tumor growth inhibition at 80 mg/kg, po administered daily for 10 days via gavage and measured on day 21 relative to control; type: functional; conditions: NIH3T3, 504 h, time 21 day, read-out: TGI
NIH3T3 [22] = test: Antitumor activity against mouse 3T3 cells transfected with HER-2 oncogene implanted in athymic nude mouse assessed as tumor growth inhibition at 10 mg/kg, po administered daily for 10 days via gavage and measured on day 14 relative to control; type: functional; conditions: NIH3T3, 336 h, time 14 day, read-out: TGI
NIH3T3 [23] = test: Antitumor activity against mouse 3T3 cells transfected with HER-2 oncogene implanted in athymic nude mouse assessed as tumor growth inhibition at 40 mg/kg, po administered daily for 10 days via gavage and measured on day 14 relative to control; type: functional; conditions: NIH3T3, 336 h, time 14 day, read-out: TGI
BT-474 [24] = test: Antitumor activity against human BT-474 cells xenografted in athymic nude mouse assessed as tumor growth inhibition at 5 mg/kg, po administered daily for 20 days via gavage and measured on day 21 relative to control; type: functional; conditions: BT-474, 504 h, time 21 day, read-out: TGI
[25] = In vivo inhibition of HER2 autophosphorylation in human BT-474 cells xenografted athymic nude mouse at 40 mg/kg, po administered as single dose via gavage measured after 6 hrs by immunoblot analysis relative to control; type: functional
[26] = In vivo inhibition of HER2 autophosphorylation in human BT-474 cells xenografted athymic nude mouse at 40 mg/kg, po administered as single dose via gavage measured after 24 hrs by immunoblot analysis relative to control; type: functional
SK-OV-3 = test: Antitumor activity against human SK-OV-3 cells xenografted in po dosed athymic nude mouse assessed as tumor growth inhibition administered daily for 20 days via gavage and measured on day 21; type: functional, organism-based; conditions: dose 10-60 mg/kg, time 21.0 day
MCF7 = test: Antitumor activity against human MCF7 cells xenografted in athymic nude mouse assessed as tumor growth inhibition up to 80 mg/kg, po administered daily for 20 days via gavage and measured on day 28 relative to control; type: functional; conditions: time 28 day
[27] = Toxicity in human BT-474 cells xenografted athymic nude mouse assessed as body weight loss at 10 to 40 mg/kg, po administered daily via gavage for 20 days; type: organism-based; conditions: in vivo, 480 h, dose 10-40 mg/kg, time 20 day
[28] = Toxicity in mouse 3T3 cells transfected with HER-2 oncogene implanted athymic nude mouse at 20 to 80 mg/kg, po administered daily for 10 days; type: organism-based, NIH3T3; conditions: in vivo, 240 h, dose 20-80 mg/kg, time 10 day

IC50 [1]: > 50 µM
IC50 [2]: > 18 µM
IC50 [3]: 0.8 µM
IC50 [4]: > 35 µM
IC50 [5]: > 18 µM
IC50 (A-431): 0.081 µM
inhibition [8]: 105%
Activity [9]: Active
IC50 (BT-474 [19]): 0.002 µM
SMILES: COc1cc2ncc(C#N)c(Nc3ccc(OCc4ccccn4)c(Cl)c3)c2cc1NC(=O)/C=C/CN(C)C
Ratio IC50 (Homo sapiens): 24
IC50 at 2 days [6]: 0.7 µM
IC50 (NIH3T3 [7]): 0.003 µM
Activity (BT-474 [10]): Active
Activity (BT-474 [11]): 11%
Activity (BT-474 [12]): 7%
Activity (BT-474 [13]): 69%
Activity (BT-474 [14]): 16%
Activity (BT-474 [15]): 18%
Activity (BT-474 [16]): 14%
Activity (BT-474 [17]): 13%
Activity (BT-474 [18]): 11%
Activity (BT-474 [20]): Active
inhibition in vivo at 80 mg/kg (NIH3T3 [21]): 98%
inhibition in vivo at 10 mg/kg (NIH3T3 [22]): 34%
inhibition in vivo at 40 mg/kg (NIH3T3 [23]): 98%
inhibition in vivo at 5 mg/kg (BT-474 [24]): 70%
inhibition in vivo at 40 mg/kg [25]: 97%
inhibition in vivo at 40 mg/kg [26]: 43%
TGI (SK-OV-3): Dose-Dependent Effect
TGI (MCF7): 28%
Activity [27]: Non-Toxic
Activity [28]: Non-Toxic
